Source: PMC7281429, “Chromenopyrimidinone Controls Stemness and Malignancy by suppressing CD133 Expression in Hepatocellular Carcinoma” (Cancers, 2020)

Biological target: T1, topoisomerase I (Homo sapiens, UniProt P11387)
T1 construct: gene TOP1
T1 sequence (P11387 2-765): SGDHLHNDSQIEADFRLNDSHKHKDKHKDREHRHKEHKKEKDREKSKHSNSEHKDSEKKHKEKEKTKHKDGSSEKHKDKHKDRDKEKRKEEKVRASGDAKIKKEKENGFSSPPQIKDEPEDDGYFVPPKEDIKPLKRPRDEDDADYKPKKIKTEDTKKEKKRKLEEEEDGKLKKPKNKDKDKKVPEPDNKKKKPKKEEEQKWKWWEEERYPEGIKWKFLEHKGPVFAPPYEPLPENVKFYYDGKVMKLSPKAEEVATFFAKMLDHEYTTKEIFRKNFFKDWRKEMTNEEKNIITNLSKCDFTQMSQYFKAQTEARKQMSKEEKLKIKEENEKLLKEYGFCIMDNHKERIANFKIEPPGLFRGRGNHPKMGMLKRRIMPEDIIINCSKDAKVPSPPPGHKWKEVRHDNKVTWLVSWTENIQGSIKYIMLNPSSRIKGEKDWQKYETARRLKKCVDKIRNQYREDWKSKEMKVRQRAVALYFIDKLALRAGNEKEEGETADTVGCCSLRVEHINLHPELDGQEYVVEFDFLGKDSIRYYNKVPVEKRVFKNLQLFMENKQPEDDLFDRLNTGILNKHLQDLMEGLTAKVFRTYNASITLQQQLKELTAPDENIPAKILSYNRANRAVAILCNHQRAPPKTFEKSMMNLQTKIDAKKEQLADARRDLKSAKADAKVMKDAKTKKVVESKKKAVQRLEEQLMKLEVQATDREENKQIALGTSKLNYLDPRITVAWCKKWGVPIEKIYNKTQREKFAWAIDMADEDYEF
Assay: plasmid DNA relaxation assay (supercoiled pBR322, agarose gel) with commercial human topoisomerase I
Format: biochemical

SMILES: O=c1[nH]c(-c2ccc(O)cc2)nc2c1Cc1c(ccc3ccccc13)O2 [CPO, chromenopyrimidinone]
- EC50: 3.6 µM
